Assay results taken from US20200390755A1, “COMPOUND FOR TREATING NERVOUS SYSTEM DISEASES AND USE THEREOF” (SHAANXI MICOT TECHNOLOGY CO., LTD., priority 2018, published 2020).

Columns and labels:
[1] = tested on: N171-82Q HD mice; experiment: Slope balance beam experiment, HD mice; type: in vivo, mouse; details: 5 mg/kg/d intragastric
Method: 7-week-old N171-82Q HD male mice were paired with female B6C3F1/J hybrid mice to obtain newborn mice. From 21 days of age, male mice were housed in separate cages. 0.5 cm of mouse tail tissue was removed to extract DNA to determine the genotype of the mouse, such that N171-82Q HD mice and WT mice needed for the experiment were obtained. The mice were randomly divided into WT Vehicle group (normal mice), WT test compound group (administration group of normal mice, 5 mg/kg/d, n=10), HD Vehicle group (blank group of HD mice, n=15), HD test compound group (administration groups 1-5 of HD mice, 5 mg/kg/d, n=10). The test compound was suspended in 1% CMC-Na solution and administered by intragastric administration until the end of the study. The weights of the mice were measured every week. Behavioral tests were performed at 12 weeks, 18 weeks, and 24 weeks of age to investigate motor function. At 20 weeks, 3 samples of tissue from each group were used for western blotting and immunohistochemistry. At 24 weeks, MRI scans were performed. At the end of the study, the effect of the test compound on the mortality of mice was evaluated.
The software Sigmaplot 13.0 was used for statistical analysis of the data, and the data of each group was expressed as mean standard error (x±SEM). Behavioral test results were analyzed using two-way (genotype and processing factor) ANOVA and post-ho tests, the comparison and statistics of weight data were performed using two-way (genotype and age) ANOVA of repeated measures, and mortality was counted using Kaplan-Meier method. Other measurement data were analyzed by one-way ANOVA. P<0.05 was considered statistically significant.
The motor function of mice was evaluated by the rotarod experiment and three types of balance beam experiments. The shorter the time for mouse to cross the balance beam, and the longer the time to drop, the stronger the coordination ability of the mouse.
A square balance beam with a length of 100 cm and a width of 11 mm was placed at a 45-degree angle to the horizontal ground. A black box (12×12×12 cm) was placed at the end of the balance beam, and the starting platform was illuminated by bright lights. Spacers were placed under the balance beam to provide cushioning in case that the animal falls off the beam. One hour before the test, the mice were trained to cross the beam three times at one-eighth, one-quarter, and full-length distances from the black box, respectively. If the mice stopped walking during training, they were gently pressed with long forceps on the tail to encourage movement. After the training experiment, the mice rested for at least one hour in an undisturbed environment. In the experiment, the maximum time for each mouse to cross the balance beam was set to 60 seconds. If the time for crossing the beams was greater than 60 seconds, it was recorded as 60 seconds.

[2] = tested on: AKT signaling pathway; experiment: Western blotting of p-AKT and t-AKT in primary cortical neuron cells; type: cell-based, mouse; details: 500 nM, 10 min at 37° C., Vehicle = 100, n = 3
Method: N171-82Q WT male mice were mated with female B6C3F1/J hybrid mice. B6C3F1/J mice 18 days after pregnancy were anesthetized with isoflurane and dissected to remove embryos, which were then placed in a 10 cm Petri dish containing Leibovitz's buffer. The head of the embryo was cut off, and the brain was peeled off to obtain the whole mouse brain, which was then placed in a new 10 cm Petri dish containing Leibovitz's buffer. The neurocortex of the brain was separated and placed in a 15 mL centrifuge tube containing 3 mL Leibovitz's buffer. The centrifuge tube was centrifuged at 1000 rpm for 1 minute, and the Leibovitz's buffer was gently removed from the centrifuge tube, and then 750 μL of 0.25% trypsin-EDTA and 75 μL of 0.1% DNase (2000 U/mL) were added to digest at 37° C. for 15 min. 750 μL of DMEM medium containing 5% FBS was added to stop the digestion. The cells were mixed well, and centrifuged at 1000 rpm for 5 minutes. Trypins/DNase mixture was removed, and 750 μL of Neurobasal medium (B-27, Glutamax, P/S) was added. The cells were mixed by gently pipetting with a pipette for 30 times. The cell suspension was filtered with a 40 µm filter and transferred to another new 50 mL centrifuge tube. 10 μL of the cell suspension was added to 90 μL of DMEM (diluted 10 times), and 10 μL of the liquid mixture was placed on a hemocytometer so that the suspension filled between the cover slip and the counting plate for counting. The cells in the four large grids of the plate were counted, wherein for the cells across the line, only the cells on the left and upper side lines were counted. The following formulas were used:
Number of cells/mL=total number of cells in the four large grids/4×10^4/mL
Total number of cells/mL=total number of cells in the four large grids/4×10^4/mL×dilution factor.
After counting, the cells were diluted with Neurobasal selection medium so that 1 mL of Neurobasal culture medium contained 0.5×10^6 cells.
200 μL of PDL solution previously heated in a 37° C. water bath was added to each well of a 6-well plate, and incubated at 37° C. overnight to allow PDL to evenly coat the well plate. The PDL solution was absorbed and the plate was washed twice with PBS. Before use, the PBS remaining on the plate was absorbed and the cover was opened to dry the plate in a super clean bench. 2 mL of cell suspension was added to each well (37° C., 5% CO2), and the cells were cultured until adherence. The culture medium was replaced and the culture continued for 3 days, and then the growth status of neurons was observed. Every other 3 days, half of the medium was removed and replaced with fresh complete medium. The culture continued until the primary cortical neuron cells mature (usually mature on the 14th day of culture).
After the primary cortical neuron cells have matured, appropriate amount of freshly prepared culture medium was added until final volume in each well was 2 mL. The experiment included a blank control group (Vehicle), a positive control group BDNF (10 ng/mL), a control compound group (500 nM), and 6 test compound groups (500 nM). Three repeats were set for each dose. After incubating at 37° C. for 10 min, the culture solution was discarded and the cells were washed with pre-chilled PBS, and then 40 μL of pre-chilled lysate (RIPA buffer 10 mL and protease and phosphatase inhibitor 100 μL) was added to each well for lysis on ice for 30 min. After lysis, the cell was crushed by ultrasonic cell crusher, centrifuged at 14000 rpm for 20 min at 4° C. The supernatant was transferred to a new 1.5 mL centrifuge tube to extract protein. Western blotting experiments were used to detect the protein levels of (A) p-TrkB and t-TrkB; (B) p-AKT and t-AKT.
The software Sigmaplot 13.0 was used for statistical analysis of the data, and the data of each group was expressed as mean±standard error (x±SEM). […]

Row | Compound | Time for crossing the beams, slope balance beam ([1]; 12 w) [s] | Time for crossing the beams, slope balance beam ([1]; 18 w) [s] | Time for crossing the beams, slope balance beam ([1]; 24 w) [s] | Relative intensity of p-AKT/t-AKT protein [2]
1 | O=c1cc(-c2ccc(N3CCCCC3)cc2)oc2c(O)c(O)ccc12 [Example 1, 7,8-dihydroxy-2-(4-(piperidin-1-yl)phenyl)-4H-chromen-4-one] | 15.18 ± 3.95 | 14.09 ± 3.18 | 18.09 ± 6.02 | 219.663 ± 8.085
2 | COc1ccc2c(=O)cc(-c3ccc(N4CCCCC4)cc3)oc2c1OC [Example 2, 7,8-dimethoxy-2-(4-(piperidin-1-yl)phenyl)-4H-chromen-4-one] | 17.88 ± 2.83 | 17.13 ± 4.76 | 19.00 ± 6.84 | 209.651 ± 3.294
3 | CN(C)C1CCN(c2ccc(-c3cc(=O)c4ccc(O)c(O)c4o3)cc2)CC1 [Example 3, 2-(4-(4-(dimethylamino)piperidin-1-yl)phenyl)-7,8-dihydroxy-4H-chromen-4-one] | 13.64 ± 6.90 | 14.37 ± 5.81 | 15.43 ± 4.58 | 240.213 ± 8.376
4 | CC1(C)CCN(c2ccc(-c3cc(=O)c4ccc(O)c(O)c4o3)cc2)CC1 [Example 4, 2-(4-(4,4-dimethylpiperidin-1-yl)phenyl)-7,8-dihydroxy-4H-chromen-4-one] | 16.78 ± 5.98 | 17.00 ± 5.65 | 18.38 ± 5.10 | 215.698 ± 5.487
5 | CC1CC(C)CN(c2ccc(-c3cc(=O)c4ccc(O)c(O)c4o3)cc2)C1 (centres unmarked) [Example 5, 2-(4-(3,5-dimethylpiperidin-1-yl)phenyl)-7,8-dihydroxy-4H-chromen-4-one] | 14.94 ± 6.59 | 16.67 ± 5.77 | 18.58 ± 7.34 | 219.904 ± 6.954
